From PubChem BioAssay (NCI) come the findings set out here.

Where “and” joins values, the source holds several entries; their conditions need not be identical. Equal values may be shown once.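 How tested: cells in 96-well plates exposed to compound for 48 hours at five concentrations. The concentration for 50% growth inhibition is given as GI50. TGI denotes the concentration required for complete inhibition of growth.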

Assay in all cases: NCI-60 cell line screen, 48 h
In assay [1] the test system is HT29 colon.
The test system of assay [2] is M14 melanoma.
Assay [3] deals with SNB-19 CNS.
Assay [4] has as its system HCT-15 colon.
Assay [5] deals with ACHN renal.
Assay [6] has as its system TK-10 renal.
For assay [7], the system named is OVCAR-4 ovarian.
The test system of assay [8] is U251 CNS.
In assay [9] the test system is RPMI-8226 leukemia.
Assay [10] deals with K-562 leukemia.

Take `CC[Si](CC)(CC)OC[C@]1([C@@H]2COC(C)(C)O2)CC=CC(=O)O1`: the GI50 was 46.8 µM in [1]; 33 µM in [2]; 34.7 µM in assay [3]; 35.7 µM in assay [4]; 42.8 µM in assay [5]; 24.2 µM in assay [6]. Also, the GI50 is 85.8 µM in assay [7], 42.2 µM in assay [8], 18.3 µM in [9] and 34.6 µM in [10]. The TGI was > 100 µM in [1]; > 100 µM in assay [2]; > 100 µM in assay [3]; > 100 µM in [4]; > 100 µM in assay [5]; 79 µM in [6]. Also, the TGI was > 100 µM in assay [7], > 100 µM in assay [8], 65.6 µM in assay [9] and > 100 µM in assay [10].

Consider `CCOC(=O)NC(=O)c1cn(CCCOC(=O)CCCCCCCCCCC(=O)OCCCn2cc(C(=O)NC(=O)OCC)c(=O)n(C)c2=O)c(=O)n(C)c1=O`, for which the TGI in [1], in assay [2], in assay [3], in assay [4], in [5] and in assay [6] was > 100 µM each time. Besides, the TGI in assay [7], in assay [8], in assay [9] and in assay [10] was > 100 µM in each case.

As to `O=P([O-])(O)OP(=O)([O-])O.[NH-][C@@H]1CCCC[C@H]1[NH-].[Pt+4]`, the GI50 was 5.67 µM and 3.09 µM in assay [1]; 38.9 µM and 14.8 µM in assay [2]; 47.9 µM and 14.9 µM in assay [3]; 11.2 µM and 8.21 µM in assay [4]; 4.78 µM and 5.63 µM in assay [5]; 52.4 µM in assay [6]. Besides, the GI50 was > 75.1 µM and 11.2 µM in assay [7]; 42.4 µM and 8.27 µM in assay [8]; 13.7 µM and 3.16 µM in assay [9]; 26.1 µM and 4.09 µM in [10]. Also, the TGI in [1] is > 100 µM; in [2] it was > 100 µM; in [3], > 100 µM; in [4] it was > 100 µM; in assay [5], > 100 µM and 58.2 µM; in assay [6], > 100 µM. The TGI in [7], in assay [8], in assay [9] and in [10] was > 100 µM in each case.

Turning to `C=C1C(=O)[C@@]23CC1C(O)[C@@H](OC(C)=O)[C@@H]2C1(C)C(OC(C)=O)C[C@@H](OC(C)=O)C(C)(C)[C@@H]1C[C@H]3OC(C)=O` (some centres undefined), the GI50 in assay [1] is 6.13 µM and 2.61 µg/mL; in [2] it was 2.33 µM and 2.68 µg/mL; in assay [3], > 10 µM and 17.2 µg/mL; in assay [4], 2.69 µg/mL; in assay [5], 4.26 µg/mL; in assay [6], > 10 µM and 2.29 µg/mL. The GI50 is > 10 µM and 8.36 µg/mL in assay [7]; > 10 µM and 13.9 µg/mL in [8]; 1.55 µM and 0.543 µg/mL in assay [9]; 1.55 µM and 0.573 µg/mL in [10]. Besides, the TGI was > 10 µM and 7.22 µg/mL in assay [1]; > 10 µM and 7.15 µg/mL in [2]; > 10 µM and 31.1 µg/mL in assay [3]; > 10 µM and 8.61 µg/mL in [4]; > 10 µM and 16.6 µg/mL in [5]; > 10 µM and 5.15 µg/mL in assay [6]. Besides, the TGI in assay [7] is > 10 µM and 22.1 µg/mL; in [8], > 10 µM and 27 µg/mL; in assay [9], 4.28 µM and 3.5 µg/mL; in assay [10], 3.71 µM and 2.86 µg/mL.

In the case of `CC/C(=C(/CC)c1ccc(O)cc1)c1ccc([O-])cc1.CC/C(=C(/CC)c1ccc(O)cc1)c1ccc([O-])cc1.O=C([CH-]C(=O)c1ccccc1)c1ccccc1.O=C([CH-]C(=O)c1ccccc1)c1ccccc1.[Ti+4]`, the GI50 was 18.1 µM in assay [1]; 8.34 µM in assay [2]; 14.7 µM in assay [3]; 6.8 µM in [4]; 20.5 µM in assay [5]; 30.2 µM in assay [6]. Besides, the GI50 was 24.8 µM in assay [7], 13.9 µM in [8], 30.5 µM in assay [9] and 3.51 µM in assay [10]. Moreover, the TGI in assay [1] was 32 µM; in [3], 27.8 µM; in assay [4], 32.3 µM; in assay [5] it was 72.8 µM; in [6], 76.9 µM; in assay [7], > 100 µM. The TGI in assay [8] is 26.9 µM; in assay [9], > 100 µM; in [10], > 100 µM.

For the compound `CCc1nc(N)nc(C(=O)NCCNC(=O)c2nc(N)nc(CC)c2C)c1C`, the TGI in assay [1], in assay [2], in assay [3], in [4], in assay [5] and in [6] was > 100 µM throughout. Also, the TGI in assay [7], in [8], in assay [9] and in assay [10] was > 100 µM each time.

As for `CC(=O)/C(=C\C1=CCCO1)C(=O)Nc1ccccc1C`, the TGI in assay [1], in assay [2], in [3], in assay [4], in [5] and in assay [6] was > 100 µM each time. For the same compound, the TGI in assay [7], in assay [8], in assay [9] and in [10] was > 100 µM each time.

For the compound `Cc1occc1C(=S)Nc1ccc(Cl)c(/C=N/OC(C)C)c1`, the TGI is 45 µM in [1]; 57.9 µM in assay [2]; > 67.4 µM in assay [3]; 42.8 µM in assay [4]; 51 µM in assay [5]; 55.8 µM in assay [6]. The TGI was > 59.7 µM in assay [7], > 53.7 µM in assay [8], > 67.6 µM in [9] and > 100 µM in [10].

Take `O=C([CH-]C(=O)c1ccccc1)c1ccccc1.O=C([CH-]C(=O)c1ccccc1)c1ccccc1.O=C([CH-]C(=O)c1ccccc1)c1ccccc1.[OH3+].[Y+3]`: the GI50 is 4.09 µM in assay [1]; 9.36 µM in assay [2]; 8.04 µM in [3]; 4.96 µM in assay [4]; 6.34 µM in assay [5]; 7.78 µM in [6]. Further, the GI50 in assay [7] was 8.77 µM; in assay [8], 2.93 µM; in assay [9] it was 6.04 µM; in assay [10], 3.6 µM. The TGI in [1] was 17.1 µM; in assay [2] it was 22 µM; in [3], 56.4 µM; in assay [4], 22.8 µM; in [5], 21.9 µM; in assay [6], 68.4 µM. In addition, the TGI in [7] was 46 µM; in [8], 24.2 µM; in [9] it was 32.2 µM; in assay [10], 17.8 µM.
